Laboratory results as given in PubChem BioAssay (NCI).
Several values for one entry are separate records, joined by “and”; a condition that tells them apart may be missing. Equal values may be shown once.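 All cell lines were grown in 96-well plates and treated with compound for 48 hours. GI50 = concentration required for 50% inhibition of growth. TGI: concentration producing complete growth inhibition.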

Legend:
Test in all cases: inhibition of tumour cell growth, NCI panel, 48 h
HCC-2998 colon = system: HCC-2998 colon
M14 melanoma = system: M14 melanoma
MOLT-4 leukemia = system: MOLT-4 leukemia
NCI-H460 lung = system: NCI-H460 lung
OVCAR-4 ovarian = system: OVCAR-4 ovarian
SK-MEL-28 melanoma = system: SK-MEL-28 melanoma
T-47D breast = system: T-47D breast
EKVX NSCLC = system: EKVX NSCLC

SMILES | GI50 (HCC-2998 colon) | TGI (HCC-2998 colon) [µM] | GI50 (M14 melanoma) [µM] | TGI (M14 melanoma) [µM] | GI50 (MOLT-4 leukemia) [µM] | TGI (MOLT-4 leukemia) [µM] | GI50 (NCI-H460 lung) [µM] | TGI (NCI-H460 lung) [µM] | GI50 (OVCAR-4 ovarian) [µM] | TGI (OVCAR-4 ovarian) [µM] | GI50 (SK-MEL-28 melanoma) | TGI (SK-MEL-28 melanoma) [µM] | GI50 (T-47D breast) [µM] | TGI (T-47D breast) [µM] | TGI (EKVX NSCLC) [µM] | GI50 (EKVX NSCLC) [µM]
CS(=O)(=O)CCn1c(=O)c(Oc2ccc(F)cc2F)cc2cnc(NC3CCOCC3)nc21 | > 25 µM | > 25 | > 25 | > 25 | > 25 | > 25 | > 25 | > 25 | > 25 | > 25 | > 25 µM | > 25 | > 25 | > 25 |  | 
CC(O)(CNS(=O)(=O)c1ccccc1)c1ccccc1 (centres undefined) |  |  |  | > 100 |  |  |  | > 100 |  | > 100 |  | > 100 |  | > 100 | > 100 | 
COc1ccc(-c2nnc(N3CCN(C(=O)CN4CCN(c5ccc(Cl)cc5)CC4)CC3)nc2-c2ccc(OC)cc2)cc1 | 56.8 µM | > 100 | 35.8 | > 100 | 6.53 | > 100 | 14.4 | > 100 | > 100 | > 100 | > 100 µM | > 100 | 4.51 | 74.8 | > 100 | > 100
C=C1CC2(CCCC3(CC(=C)C(=O)O3)C2(C)C)OC1=O (centres undefined) |  |  |  | 8.58 |  | 1.03 |  | 46.3 |  | 20.2 |  | 4.61 |  | 21.3 | 18.4 | 
O=S(=O)(NCCNc1cc(-c2cn(-c3ccccc3)nc2-c2cccc(O)c2)ccn1)c1ccc(Cl)cc1 | 1.99 µM | 4.14 | 2.54 | 8.61 | 2.51 | 7.37 | 3.34 | 11.9 | 4.37 | > 100 | 2.2 µM | 5.42 | 2.16 | 7.74 | 31.2 | 2.87
c1ccc2cc(Cn3c[n+](Cc4ccc5ccccc5c4)c4ccccc43)ccc2c1 |  |  |  |  |  |  |  |  | 1.19 | 2.61 | 1.52 µM | 3.11 |  |  |  | 
CC(C)(C)OC(=O)CN1CCc2c(sc3ncnc(N/N=C/c4cccc5ccccc45)c23)C1 | 3.6 µM | 11.7 |  |  | 1.26 | 9.39 | 1.62 | 6.22 | 2.58 | 14.1 | 4.41 µM | 15.7 | 1.83 | 17.9 | > 33.3 | 2.22
Cc1cc(C)n(C(=O)c2nn(-c3ccc(Cl)cc3)cc2O)n1 | 15.1 µM | > 100 | 4.69 | > 100 |  |  | 2.38 | 6.04 | 9.19 | > 100 | 6.28 µM | > 100 | 3.67 | > 100 | > 100 | 4.87
C/C1=C/C(=O)O[C@@H]2C[C@@H](CC[C@H](C)/C=C\C=C\CC1)O[C@@](OCCc1ccccc1)([C@@H]1CSC(=O)N1)C2 | 6 µM | > 17.5 | 0.204 | > 17.5 | > 5.2 | > 17.5 | 0.27 | > 17.5 | 0.225 | > 5.44 | 0.218 µM | 0.995 |  |  | > 17.5 | 0.106
O=[N+]([O-])c1ccc(/C=C(/c2ccc([N+](=O)[O-])o2)S(=O)(=O)c2ccccc2)o1 |  |  |  | 25.5 |  |  |  | 60.1 |  | 15.5 |  | 33.6 |  | > 100 | 22.8 | 
COc1cc2cc(Oc3ccc(NC(=O)Nc4ccc(Cl)c(C(F)(F)F)c4)cc3)c(C)nc2cc1OC | 1.77 µM | 5.48 | 1.25 | 5.25 | 1.14 | 5.49 | 1.07 | 3.57 | 1.37 | 6.1 | 1.41 µM | 5.45 | 1.21 | 7.9 | 3.75 | 1.01
COc1ccc2c(c1)cn1c3ccc(O)cc3[nH]c(=O)c21 | 0.667 µM | 4.42 | 0.0984 | 1.21 | 0.316 | 6.95 | 0.138 | 1.62 | 2.41 | 13.4 | 0.147 µM | 6.33 | 0.487 | 2.37 | 19.2 | 0.797
COc1cc(NCc2ccccc2O)c2ncccc2c1 | 42.6 µM | > 100 | 19 | 53.6 | 18.9 | > 100 | 15.8 | > 100 | 13.7 | > 100 | 21.3 µM | 80.2 | 20.4 | > 100 | 80.8 | 19
O=C(Nc1ccccc1O)c1ccc(CNC(=O)c2sccc2Nc2ccnc(C(F)(F)F)c2)cc1 | 10.1 µM | 22.4 | 7.87 | 27.8 | 1.78 | 32.7 | 5.19 | 21.4 | 5.35 | > 100 | 5.57 µM | 46.3 | 3.45 | 29.9 | 57.7 | 8.77
COc1ccc(CC(NC(=O)[C@H](C)NC(=O)CN2CCOCC2)C(=O)N[C@@H](Cc2ccccc2)C(=O)[C@@]2(C)CO2)cc1 (some centres undefined) | 0.174 µM | 0.324 | 0.284 | 2.5 | 0.0572 |  | 0.422 | 1.96 | 0.228 | 0.856 | 0.215 µM | 0.586 | 0.208 | 0.482 | > 100 | 0.469
O=C(Nc1cccc(O)c1)c1cccc(NC2=C(Cl)C(=O)N(Cc3ccccc3)C2=O)c1 | 15.8 µM | 29.4 | 20.5 | 40 | 1.04 | > 100 | 36.8 | > 100 | 19.2 | 47.9 | 16.9 µM | 36.3 | 23.5 | 60.5 | 32.1 | 17.3
Cc1nc2cc(Nc3nc(Nc4ccc(F)cc4)nc(N4CCN(C)CC4)n3)ccc2n1Cc1ccccc1 |  |  | 1.97 | 3.69 | 2.01 | 5.07 | 1.9 | 3.83 | 2.2 | 5.87 | 1.73 µM | 3.16 |  |  |  | 
Nc1ccc2ccc(NS(=O)(=O)N3CCCCC3)cc2c1 | 0.707 µM | > 24.8 |  |  | 0.524 | > 100 | 0.409 |  | 1.82 | > 100 | 0.664 µM | > 100 | 0.381 | > 75.3 | > 100 | 2.05

SMILES | GI50 (HCC-2998 colon) | TGI (HCC-2998 colon) [µM] | GI50 (M14 melanoma) [µM] | TGI (M14 melanoma) [µM] | GI50 (MOLT-4 leukemia) [µM] | TGI (MOLT-4 leukemia) [µM] | GI50 (NCI-H460 lung) [µM] | TGI (NCI-H460 lung) [µM] | GI50 (OVCAR-4 ovarian) [µM] | TGI (OVCAR-4 ovarian) [µM] | GI50 (SK-MEL-28 melanoma) | TGI (SK-MEL-28 melanoma) [µM] | GI50 (T-47D breast) [µM] | TGI (T-47D breast) [µM] | TGI (EKVX NSCLC) [µM] | GI50 (EKVX NSCLC) [µM]
O=S(=O)(O)/C(=C\c1ccccc1)c1ccccc1 (tested in a mixture with another compound) |  |  |  | > 100 |  | > 100 |  | > 100 |  | > 100 |  | > 100 |  | > 100 | > 100 | 
Cc1cccc2c1O/C(=C\c1ccc([N+](=O)[O-])o1)C2=O | 1.34 µM | 3.91 | 1.43 | 3.21 | 1.52 | 5.7 | 0.817 | 2.5 | 2.06 | 8.06 | 1.53 µM | 3.05 | 1.2 | 3.69 |  | 
Cc1cccc(C)c1NC(=O)CCC(=O)NC(N)=S |  | > 100 |  | > 100 |  | > 100 |  | > 100 |  |  |  |  |  |  | > 100 | 
COC1C(O)C(C)OC(OC2CC3CCC4C(CCC5(C)C(C6=CC(=O)OC6)CCC45O)C3(O)C(OC(C)=O)C2)C1O (centres undefined) |  | 13 |  | 5.5 |  |  |  | 2.74 |  | 17.1 |  | > 37.6 |  | 12.7 | 3.14 | 
O=C(O)c1cscc1Cc1cccs1 |  |  |  | > 100 |  | > 100 |  | > 100 |  | > 100 |  | > 100 |  | > 100 | > 100 | 
CC(O)C(O)C(O)C(/C=N\Nc1ccccc1)=N/Nc1ccccc1 (centres undefined) |  | 23.3 |  | 27.9 |  | 69.5 |  | 24.6 |  |  |  | 30.2 |  | 45.9 | 27.6 | 
CC(=O)[C-](C(C)=O)c1ccccc1.CC(=O)[C-](C(C)=O)c1ccccc1.CC[O-].CC[O-].[Ti+4] | > 100 µM | > 100 | > 100 | > 100 | > 100 | > 100 |  |  | > 100 | > 100 | > 100 µM | > 100 |  |  | > 100 | > 100
COc1cc(C2=NN(c3ccc(S(N)(=O)=O)cc3)C(c3ccc(Cl)cc3)C2)cc(OC)c1OC (centres undefined) | 6.93 µM | > 100 | 4.8 | > 100 | 4.81 | > 100 | 3.95 | > 100 | 3.16 | 9.46 | 3.78 µM | > 100 | 1.74 | 14.7 |  | 
COc1cc(NCC2COc3c(ccc(OC)c3OC)C2=O)c([N+](=O)[O-])cc1OC (centres undefined) |  |  |  | > 100 |  | > 100 |  | > 100 |  | > 100 |  | > 100 |  | > 100 | > 100 | 
Cc1cc(C)c2c(SCc3ccc(Cl)cc3Cl)nc(N)nc2n1 |  |  |  | > 100 |  |  |  | 67.5 |  | > 100 |  | > 100 |  | 47 | > 100 | 
Cc1cc(C)cc(Nc2ccc([N+](=O)[O-])c(NCCN3CCOCC3)n2)c1 | 0.00435 µM and 0.0287 µM | > 100 | 0.00162 |  |  | > 100 |  | > 100 | 0.002 | > 100 | 0.672 µM and 2.75 µM | > 100 |  |  | > 100 | 
O=C(CNc1ncco1)Nc1ccc(S(=O)(=O)c2ccc(NC(=O)CNc3ncco3)cc2)cc1 | 3.44 µM | 16.4 | 1.7 | 3.55 | 3.13 | 8.45 | 2.02 | 4.29 |  |  | 2.38 µM | 5.51 | 1.87 | 4.38 | 9 | 2.23
CC(=O)c1cc2c(c3ccsc13)-c1ccccc1CC2 | 8.95 µM | 27.3 | 27.7 | 89.8 |  |  | 30.1 | > 100 | > 100 | > 100 | > 100 µM | > 100 | > 100 | > 100 | > 100 | 6.37
CO[C@@]12C[C@H]3[C@@H]([C@@H](O)[C@@H](OC(=O)/C=C/c4ccccc4)[C@@]4(O)C(C)(C)CCC[C@]34C)[C@@H](C)C1=CC(=O)O2 |  |  | 18.2 | > 100 | > 100 | > 100 | 12.4 | 82.9 | 5.03 | 30.4 | 11.3 µM | 35.4 |  |  | 57.5 | 5.36
Cc1ccc2c(c1)O/C(=C\c1ccc([N+](=O)[O-])o1)C2=O | 2.05 µM | 4.49 | 1.75 | 4.07 | 2.35 | 7.52 | 1.58 | 3.22 | 1.47 | 2.84 | 2.15 µM | 4.89 | 1.86 | 4.77 |  | 
C1=C(c2ccccc2)SC=C(c2ccccc2)S1 |  |  |  | > 100 |  | > 100 |  | > 100 |  | > 100 |  | > 100 |  | > 100 | > 100 | 
CCOC(=O)N[C@H]1CCc2c(Br)c(OC)c(OC)c(OC)c2-c2ccc(SC)c(=O)cc21 | < 0.0155 µM | 1.41 | < 0.0128 | 4.35 | < 0.0108 | > 45.3 | < 0.01 | 1.61 | 0.0608 | > 53.5 | 8.06 µM | 23.4 |  |  | > 83.2 | < 0.0112
COc1cc(-c2cc(/C=C3\C(=O)Nc4ccccc43)[nH]n2)cc(OC)c1OC | 13.1 µM | 29.4 | 2.29 | 7.17 | 2.45 | 6.71 | 4.35 | 19 | 1.91 | 8.98 | 2.95 µM | 11.3 | 1.74 | 6.99 |  | 
